Tests used:
[1] = system: CNGA2:CNGA4:CNGB1b channels; design: method as in PMID 17665892; settings: cited from earlier work
[2] = biological target: T1, homotetrameric CNGA2 channels (Rattus norvegicus, UniProt Q00195); assay: Concentration-activation relationship of homotetrameric CNGA2 channels, inside-out patches of Xenopus oocytes; type: cell-based
T1 construct: expressed in transfected cells; host or cells: Xenopus laevis oocytes injected with cRNA; inside-out patches
T1 sequence (Q00195 1-664): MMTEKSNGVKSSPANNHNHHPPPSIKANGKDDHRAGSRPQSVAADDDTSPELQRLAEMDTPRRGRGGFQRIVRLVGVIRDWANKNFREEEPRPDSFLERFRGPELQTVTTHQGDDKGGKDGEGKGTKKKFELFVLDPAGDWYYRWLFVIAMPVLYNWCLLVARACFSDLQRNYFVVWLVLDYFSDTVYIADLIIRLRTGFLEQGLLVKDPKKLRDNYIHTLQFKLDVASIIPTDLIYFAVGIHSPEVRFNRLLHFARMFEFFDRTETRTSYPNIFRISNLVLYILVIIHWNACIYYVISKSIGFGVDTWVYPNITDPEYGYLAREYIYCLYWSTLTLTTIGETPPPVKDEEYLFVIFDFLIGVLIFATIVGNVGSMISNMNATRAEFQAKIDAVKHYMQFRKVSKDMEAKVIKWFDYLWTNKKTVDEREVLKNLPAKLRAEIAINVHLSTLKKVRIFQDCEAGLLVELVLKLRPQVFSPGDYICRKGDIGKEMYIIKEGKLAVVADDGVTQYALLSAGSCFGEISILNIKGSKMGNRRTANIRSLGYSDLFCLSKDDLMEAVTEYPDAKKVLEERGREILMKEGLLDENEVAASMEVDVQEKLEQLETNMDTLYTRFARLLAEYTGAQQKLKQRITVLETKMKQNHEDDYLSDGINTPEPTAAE
Protocol: (§1) For each cNMP derivative a complete concentration-activation relationship was recorded, and the data points were fitted with the Hill equation (equation 1) yielding the concentration of half maximum activation (EC50) and the Hill coefficient H (Fig. 1b,c).
(§2) The subunits CNGA2 (accession No. AF126808), CNGA4 (accession No. U12623) and CNGB1b (accession No. AF068572) of rat olfactory channels as well as mouse HCN2 channels (NM008226) were subcloned in front of the T7 promoter of pGEMHEnew. The respective cRNAs were produced by using the mMESSAGE mMACHINE T7 Kit (Ambion, Austin, TX).
(§3) Oocytes at stages IV and V were injected with 50–130 ng of cRNA encoding either CNGA2, CNGA2:CNGA4:CNGB1b (2:1:1 ratio) or HCN2 channels either manually of or by means of an injection robot (RoboInject®). The injected oocytes were incubated at 18 °C for up to 6 days in Barth’s solution containing (in mM) 84 NaCl, 1 KCl, 2.4 NaHCO3, 0.82 MgSO4, 0.41 CaCl2, 0.33 Ca(NO3)2, 7.5 TRIS, cefuroxime (4.0 µg × ml^−1), and penicillin/streptomycin (100 µg × ml^−1), pH 7.4.
(§4) Macroscopic currents were recorded from inside-out patches of the oocytes by using standard patch-clamp techniques. The patch pipettes were pulled from quartz tubing (P-2000, Sutter Instrument, Novato, USA) with an outer and inner diameter of 1.0 and 0.7 mm (VITROCOM, New Jersey, USA). The corresponding pipette resistance was 0.9–2.3 MΩ. The bath and pipette solution contained (in mM): 150 KCl, 1 EGTA, 5 Hepes (pH 7.4 with KOH) for CNG measurements. For HCN measurements the bath solution contained 100 mM KCl, 10 mM EGTA, 10 mM HEPES (pH 7.2) and 120 mM KCl, 10 mM HEPES, and 1.0 mM CaCl2 (pH 7.2) in the pipette. Recording was carried out at room temperature using an Axopatch 200B amplifier (Axon Instruments, Foster City, CA). Electrophysiology was controlled by the Patchmaster-software (HEKA Elektronik Dr. Schulze GmbH, Lambrecht, Germany). The sampling rate was 5 kHz and the filter implemented in the amplifier (4-pole Bessel) was set to 2 kHz. Measurements in HCN2 channels were generally started 3.5 min after patch excision to minimize channel run down during the measurement[14],[27],[70]. The solutions with the ligand concentrations to be tested were applied via a multi-barrel device to the patches with a flow rate of 0.8 to 1.2 ml/min.
(§5) I is the actual current amplitude and Imax the maximum current amplitude at a saturating cNMP concentration specified for each cNMP and channel. EC50 is the cNMP concentration generating the half maximum current and H the Hill coefficient.

[3] = biological target: T2, heterotetrameric CNGA2:CNGA4:CNGB1b channels (Rattus norvegicus, UniProt A0A8I5ZN27+Q00195+Q64359); assay: Concentration-activation relationship of heterotetrameric CNGA2:CNGA4:CNGB1b channels, inside-out patches of Xenopus oocytes; type: cell-based; settings: heterotetrameric CNGA2:CNGA4:CNGB1b channels, mean; for EC50: late current at +10 mV
T2 construct: expressed in transfected cells; host or cells: Xenopus laevis oocytes co-injected with cRNAs (2:1:1); inside-out patches
Protocol: as §1, §2, §3, §4, §5

CNGA2 channels = biological target: T3, CNGA2 channels (Rattus norvegicus, UniProt Q00195); assay: Activation and deactivation kinetics by concentration jumps, CNGA2 channels; type: cell-based
T3 construct: expressed in transfected cells; host or cells: Xenopus laevis oocytes injected with cRNA; inside-out patches
T3 sequence (Q00195 1-664): T1 sequence (Q00195 1-664)
From the text: (§6) We applied concentration jumps from zero to a defined level and back to zero, yielding the time constants τa and τd, respectively (c.f. Methods section). If the enhancement of the apparent affinity is caused by solely accelerating the binding rate, τa would be decreased and τd would be unaffected. Conversely, if the hydrophobic alkyl chain enhances the apparent affinity by solely decelerating the unbinding rate, τd would be increased and τa could be increased preferentially at lower concentrations.
(§7) In experiments designed to record activation and deactivation kinetics in CNG channels, theta-glass pipettes were used in which one barrel contained control solution and the other barrel the test solution supplemented with the ligand. The theta-glass pipette was mounted on a piezo actuator which was controlled by the computer controlling the voltage protocols. The effective switch time of the solution exchange, t10–90, determined by an open patch pipette and different solutions in the barrels, was negligible compared to the time courses of activation and deactivation to be considered. […]
(§8) The speed of activation and deactivation was determined by fitting the respective time courses with single exponentials yielding the time constant τ. […] To quantify the time course at a given cNMP concentration for a number of measurements τwm and τ were treated equally. […]

[4] = biological target: T4, CNGA2:CNGA4:CNGB1b channels (Rattus norvegicus, UniProt A0A8I5ZN27+Q00195+Q64359); assay: Activation and deactivation kinetics by concentration jumps, CNGA2:CNGA4:CNGB1b channels; type: cell-based
T4 construct: expressed in transfected cells; host or cells: Xenopus laevis oocytes co-injected with cRNAs (2:1:1); inside-out patches
From the text: as §6, §7, §8

[5] = biological target: T5, homotetrameric HCN2 channels (Mus musculus, UniProt O88703); assay: Concentration-activation relationship of homotetrameric HCN2 channels, inside-out patches of Xenopus oocytes; type: cell-based; settings: homotetrameric HCN2 channels, mean; for EC50: pre-activation at -130 mV, instantaneous current at -100 mV
T5 construct: expressed in transfected cells; host or cells: Xenopus laevis oocytes injected with cRNA; inside-out patches
T5 sequence (O88703 1-863): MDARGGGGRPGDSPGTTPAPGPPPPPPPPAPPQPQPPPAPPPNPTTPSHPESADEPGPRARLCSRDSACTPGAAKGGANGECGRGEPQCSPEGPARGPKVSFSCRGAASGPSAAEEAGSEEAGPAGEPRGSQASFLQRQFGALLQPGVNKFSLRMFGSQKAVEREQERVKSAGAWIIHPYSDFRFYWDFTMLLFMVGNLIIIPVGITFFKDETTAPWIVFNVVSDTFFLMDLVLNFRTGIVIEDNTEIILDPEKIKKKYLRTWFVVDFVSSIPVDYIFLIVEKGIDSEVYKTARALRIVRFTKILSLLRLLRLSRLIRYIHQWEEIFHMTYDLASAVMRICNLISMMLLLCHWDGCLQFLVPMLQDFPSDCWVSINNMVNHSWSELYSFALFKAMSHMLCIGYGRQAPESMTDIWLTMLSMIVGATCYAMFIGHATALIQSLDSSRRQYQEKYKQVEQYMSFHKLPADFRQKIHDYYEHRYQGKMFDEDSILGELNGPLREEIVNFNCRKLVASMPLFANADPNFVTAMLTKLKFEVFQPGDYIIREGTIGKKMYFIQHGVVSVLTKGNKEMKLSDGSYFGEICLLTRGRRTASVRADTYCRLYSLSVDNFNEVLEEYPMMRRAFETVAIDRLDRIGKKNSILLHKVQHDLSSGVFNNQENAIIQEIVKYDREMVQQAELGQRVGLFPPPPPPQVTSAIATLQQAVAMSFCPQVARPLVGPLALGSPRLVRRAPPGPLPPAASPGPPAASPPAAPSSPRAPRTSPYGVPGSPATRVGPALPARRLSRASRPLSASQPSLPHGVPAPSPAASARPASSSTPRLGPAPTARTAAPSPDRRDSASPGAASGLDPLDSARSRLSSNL
Protocol: as §2
as §3, with “The oocytes were exposed to collagenase A (3 mg/ml; Roche, Grenzach-Wyhlen, Germany) for 105 min in Ca^2+-free Barth’s solution containing (in mM) 82.5 NaCl, 2 KCl, 1 MgCl2 2, and 5 Hepes, pH 7.4. Oocytes” for “Oocytes”
as §4, §5

[6] = homotetrameric CNGA2 channels, late current at +10 mV, mean
[7] = homotetrameric CNGA2 channels, mean

T2 sequence (Q64359 whole entry, one chain of several): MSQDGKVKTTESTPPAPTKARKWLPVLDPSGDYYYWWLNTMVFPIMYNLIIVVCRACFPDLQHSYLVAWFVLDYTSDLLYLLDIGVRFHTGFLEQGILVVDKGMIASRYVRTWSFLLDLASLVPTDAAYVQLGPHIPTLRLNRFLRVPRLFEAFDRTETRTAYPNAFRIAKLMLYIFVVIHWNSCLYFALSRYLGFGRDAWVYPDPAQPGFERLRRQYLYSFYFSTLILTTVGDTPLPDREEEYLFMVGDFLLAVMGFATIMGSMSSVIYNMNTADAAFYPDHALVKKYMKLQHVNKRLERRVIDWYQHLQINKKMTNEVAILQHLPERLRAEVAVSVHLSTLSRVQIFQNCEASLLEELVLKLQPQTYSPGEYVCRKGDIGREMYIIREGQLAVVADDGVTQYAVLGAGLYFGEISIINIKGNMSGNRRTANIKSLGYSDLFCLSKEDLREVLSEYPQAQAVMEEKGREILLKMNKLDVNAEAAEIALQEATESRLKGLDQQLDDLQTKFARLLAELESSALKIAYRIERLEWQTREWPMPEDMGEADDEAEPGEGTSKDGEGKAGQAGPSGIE
T2 sequence (A0A8I5ZN27 1-858 isoform A0A8I5ZN27-2, one chain of several): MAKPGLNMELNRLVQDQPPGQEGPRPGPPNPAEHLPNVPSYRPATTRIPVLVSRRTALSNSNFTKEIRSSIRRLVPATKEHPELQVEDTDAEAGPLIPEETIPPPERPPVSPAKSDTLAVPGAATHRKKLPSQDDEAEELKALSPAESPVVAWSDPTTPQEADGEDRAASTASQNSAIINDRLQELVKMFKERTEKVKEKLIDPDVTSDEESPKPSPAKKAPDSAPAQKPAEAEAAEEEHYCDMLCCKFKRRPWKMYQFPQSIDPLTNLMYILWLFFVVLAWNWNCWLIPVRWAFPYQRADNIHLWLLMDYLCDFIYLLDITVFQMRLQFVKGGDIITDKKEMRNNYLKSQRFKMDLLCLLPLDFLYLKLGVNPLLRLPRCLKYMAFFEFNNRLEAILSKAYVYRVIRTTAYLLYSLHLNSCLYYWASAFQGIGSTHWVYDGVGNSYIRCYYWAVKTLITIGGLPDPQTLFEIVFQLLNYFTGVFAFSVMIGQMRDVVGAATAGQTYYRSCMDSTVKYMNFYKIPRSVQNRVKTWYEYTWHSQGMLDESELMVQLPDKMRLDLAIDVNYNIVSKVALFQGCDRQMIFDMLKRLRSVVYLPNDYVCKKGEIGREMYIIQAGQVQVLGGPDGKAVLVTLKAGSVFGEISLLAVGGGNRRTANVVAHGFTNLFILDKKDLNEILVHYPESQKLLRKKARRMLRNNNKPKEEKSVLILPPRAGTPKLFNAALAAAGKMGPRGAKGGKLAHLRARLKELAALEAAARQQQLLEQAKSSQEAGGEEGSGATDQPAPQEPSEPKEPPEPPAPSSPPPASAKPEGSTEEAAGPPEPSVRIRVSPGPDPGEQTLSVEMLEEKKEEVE
T4 sequence (Q64359 whole entry, one chain of several): as the sequence (Q64359 whole entry, one chain of several) above
T4 sequence (A0A8I5ZN27 1-858 isoform A0A8I5ZN27-2, one chain of several): as the sequence (A0A8I5ZN27 1-858 isoform A0A8I5ZN27-2, one chain of several) above

| SMILES | EC50 [2, 6] | H (Hill coefficient) [2, 7] | EC50 [3] | H (Hill coefficient) [3] | activation time constant τa compared to cGMP (1G) (CNGA2 channels; at concentrations lower than 1 µM) | deactivation compared to the effect with CNGA2 channels ([4]; 10 µM) | activation time constant τa ([4]; low concentrations) | H (Hill coefficient) [5] | EC50 [5] | EC50 ([2]; CNGA2 channels, numeric mean values of box plots (Fig. 2a,b, Fig. 3) and text) | EC50 [1] | deactivation time constant τd compared to cGMP (1G) (CNGA2 channels; all tested concentrations) |
| --- | --- | --- | --- | --- | --- | --- | --- | --- | --- | --- | --- | --- |
| Nc1nc2c(nc(Sc3ccc(Cl)cc3)n2C2O[C@@H]3COP(=O)(O)O[C@H]3[C@H]2O)c(=O)[nH]1 (stereo in doubt) [8-pCPT-cGMP] |  |  |  |  |  |  |  |  |  |  | 0.073 µM |  |
| CC(=O)NCCCCCCSc1nc2c(=O)[nH]c(N)nc2n1C1OC2COP(=O)(O)OC2C1O (stereo not shown) [5G, 8-(Ac)AHT-cGMP] | 0.08 µM | 2.7 | 0.23 µM | 2.0 | larger | slowed to a much lower degree | not affected |  |  |  |  | approximately an order of magnitude increased |

Continued, in another order:

| EC50 [2, 6] | H (Hill coefficient) [2, 7] | EC50 [3] | H (Hill coefficient) [3] | activation time constant τa compared to cGMP (1G) (CNGA2 channels; at concentrations lower than 1 µM) | deactivation compared to the effect with CNGA2 channels ([4]; 10 µM) | activation time constant τa ([4]; low concentrations) | H (Hill coefficient) [5] | EC50 [5] | EC50 ([2]; CNGA2 channels, numeric mean values of box plots (Fig. 2a,b, Fig. 3) and text) | SMILES | EC50 [1] | deactivation time constant τd compared to cGMP (1G) (CNGA2 channels; all tested concentrations) |
| --- | --- | --- | --- | --- | --- | --- | --- | --- | --- | --- | --- | --- |
| 2.3 µM | 2.4 | 0.47 µM | 2.7 |  |  |  | 1.5 | 0.0146 µM |  | CC(=O)NCCCCCCCCCCSc1nc2c(N)ncnc2n1C1OC2COP(=O)(O)OC2C1O (stereo not shown) [7A, 8-(Ac)ADT-cAMP] |  |  |
| 24.9 µM | 2.4 | 6 µM | 2.2 |  |  |  | 0.9 | 0.144 µM |  | CC(=O)NCCOCCOCCSc1nc2c(N)ncnc2n1C1OC2COP(=O)(O)OC2C1O (stereo not shown) [8A, 8-(Ac)APT-cAMP] |  |  |
| 34.2 µM | 2.1 | 6.6 µM | 2.2 |  |  |  | 1.5 | 0.0967 µM | 34.3 µM | CC(=O)NCC(=O)NCCSc1nc2c(N)ncnc2n1C1OC2COP(=O)(O)OC2C1O (stereo not shown) [10A, 8-(Ac)AGET-cAMP] |  |  |
